Key:
Assay type in all cases: cell-based
human TLR7 = target: T1, human TLR7 (Homo sapiens, UniProt Q9NYK1); test: TLR7 inhibition reporter assay (HEK-Blue SEAP reporter, gardiquimod stimulation); details: HEK-Blue cells overexpressing human TLR7, SEAP reporter, gardiquimod 7.5 μM, 22 hour incubation
T1 construct: host or cells: HEK-Blue cells
T1 sequence (Q9NYK1 27-1049): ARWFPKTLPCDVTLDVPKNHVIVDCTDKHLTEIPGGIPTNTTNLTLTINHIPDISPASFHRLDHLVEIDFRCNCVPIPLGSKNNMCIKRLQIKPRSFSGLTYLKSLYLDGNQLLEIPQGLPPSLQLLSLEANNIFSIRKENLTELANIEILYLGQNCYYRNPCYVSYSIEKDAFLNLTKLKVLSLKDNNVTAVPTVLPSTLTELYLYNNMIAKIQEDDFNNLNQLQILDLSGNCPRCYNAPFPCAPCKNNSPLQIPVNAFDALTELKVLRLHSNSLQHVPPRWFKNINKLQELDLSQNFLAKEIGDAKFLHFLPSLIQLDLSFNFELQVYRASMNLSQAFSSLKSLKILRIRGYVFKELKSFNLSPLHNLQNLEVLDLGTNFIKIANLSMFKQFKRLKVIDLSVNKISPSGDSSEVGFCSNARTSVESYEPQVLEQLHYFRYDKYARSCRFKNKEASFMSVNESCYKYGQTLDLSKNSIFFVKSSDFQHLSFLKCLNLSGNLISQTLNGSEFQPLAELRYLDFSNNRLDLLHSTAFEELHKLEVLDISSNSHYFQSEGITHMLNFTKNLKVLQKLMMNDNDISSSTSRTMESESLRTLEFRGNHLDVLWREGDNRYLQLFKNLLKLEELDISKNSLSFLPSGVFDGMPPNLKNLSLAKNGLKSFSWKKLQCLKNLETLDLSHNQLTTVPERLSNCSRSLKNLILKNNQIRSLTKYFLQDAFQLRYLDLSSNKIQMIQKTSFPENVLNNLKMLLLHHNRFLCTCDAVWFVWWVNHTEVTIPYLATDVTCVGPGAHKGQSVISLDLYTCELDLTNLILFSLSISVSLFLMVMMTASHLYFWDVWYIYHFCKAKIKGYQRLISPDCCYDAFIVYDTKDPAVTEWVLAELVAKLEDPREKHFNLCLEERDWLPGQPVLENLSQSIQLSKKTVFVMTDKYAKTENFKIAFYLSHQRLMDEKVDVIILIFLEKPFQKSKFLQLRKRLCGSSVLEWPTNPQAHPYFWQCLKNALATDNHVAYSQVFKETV
Outline: (§1)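 Agonists used: gardiquimod 7.5 μM (TLR7), R848 15.9 μM (TLR8), ODN2006 5 nM (TLR9), added after 30 min room-temperature compound pre-treatment (0.05 nM–50 μM) of receptor-overexpressing HEK-Blue cells. SEAP reporter (NF-κB/AP-1 driven) read after 22 h at 37 °C; inhibition scaled between agonist+DMSO and reference-inhibitor wells.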

human TLR9 = target: T2, human TLR9 (Homo sapiens, UniProt Q9NR96); test: TLR9 inhibition reporter assay (HEK-Blue SEAP reporter, ODN2006 stimulation); details: HEK-Blue cells overexpressing human TLR9, SEAP reporter, ODN2006 5 nM, 22 hour incubation
T2 construct: host or cells: HEK-Blue cells
T2 sequence (Q9NR96 26-1032): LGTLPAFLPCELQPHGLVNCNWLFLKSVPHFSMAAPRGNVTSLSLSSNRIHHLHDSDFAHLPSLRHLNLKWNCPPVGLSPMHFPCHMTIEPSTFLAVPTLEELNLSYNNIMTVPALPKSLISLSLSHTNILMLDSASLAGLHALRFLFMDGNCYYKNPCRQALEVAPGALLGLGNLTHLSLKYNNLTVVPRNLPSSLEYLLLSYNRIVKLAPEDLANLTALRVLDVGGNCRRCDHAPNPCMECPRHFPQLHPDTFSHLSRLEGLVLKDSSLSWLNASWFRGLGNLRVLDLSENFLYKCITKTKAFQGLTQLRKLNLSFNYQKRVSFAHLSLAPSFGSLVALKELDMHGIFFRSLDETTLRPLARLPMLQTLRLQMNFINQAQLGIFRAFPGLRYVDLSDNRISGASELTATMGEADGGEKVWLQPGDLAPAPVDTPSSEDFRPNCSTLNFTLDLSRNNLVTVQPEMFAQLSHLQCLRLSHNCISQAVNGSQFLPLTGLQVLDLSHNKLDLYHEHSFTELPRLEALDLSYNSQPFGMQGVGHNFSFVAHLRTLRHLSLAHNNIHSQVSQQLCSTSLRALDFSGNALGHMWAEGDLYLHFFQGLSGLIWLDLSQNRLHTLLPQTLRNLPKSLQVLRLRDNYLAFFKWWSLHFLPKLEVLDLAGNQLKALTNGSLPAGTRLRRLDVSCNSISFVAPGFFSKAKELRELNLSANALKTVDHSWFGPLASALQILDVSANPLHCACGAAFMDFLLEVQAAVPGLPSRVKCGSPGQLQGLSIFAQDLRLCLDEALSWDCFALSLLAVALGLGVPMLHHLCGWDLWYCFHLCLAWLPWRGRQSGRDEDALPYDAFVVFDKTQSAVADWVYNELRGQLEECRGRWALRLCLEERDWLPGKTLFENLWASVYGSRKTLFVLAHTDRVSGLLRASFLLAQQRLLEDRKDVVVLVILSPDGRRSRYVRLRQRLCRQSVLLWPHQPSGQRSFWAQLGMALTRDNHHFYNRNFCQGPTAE
Outline: as §1

human TLR8 = target: T3, human TLR8 (Homo sapiens, UniProt Q9NR97); test: TLR8 inhibition reporter assay (HEK-Blue SEAP reporter, R848 stimulation); details: HEK-Blue cells overexpressing human TLR8, SEAP reporter, R848 15.9 μM, 22 hour incubation
T3 construct: host or cells: HEK-Blue cells
T3 sequence (Q9NR97 27-1041): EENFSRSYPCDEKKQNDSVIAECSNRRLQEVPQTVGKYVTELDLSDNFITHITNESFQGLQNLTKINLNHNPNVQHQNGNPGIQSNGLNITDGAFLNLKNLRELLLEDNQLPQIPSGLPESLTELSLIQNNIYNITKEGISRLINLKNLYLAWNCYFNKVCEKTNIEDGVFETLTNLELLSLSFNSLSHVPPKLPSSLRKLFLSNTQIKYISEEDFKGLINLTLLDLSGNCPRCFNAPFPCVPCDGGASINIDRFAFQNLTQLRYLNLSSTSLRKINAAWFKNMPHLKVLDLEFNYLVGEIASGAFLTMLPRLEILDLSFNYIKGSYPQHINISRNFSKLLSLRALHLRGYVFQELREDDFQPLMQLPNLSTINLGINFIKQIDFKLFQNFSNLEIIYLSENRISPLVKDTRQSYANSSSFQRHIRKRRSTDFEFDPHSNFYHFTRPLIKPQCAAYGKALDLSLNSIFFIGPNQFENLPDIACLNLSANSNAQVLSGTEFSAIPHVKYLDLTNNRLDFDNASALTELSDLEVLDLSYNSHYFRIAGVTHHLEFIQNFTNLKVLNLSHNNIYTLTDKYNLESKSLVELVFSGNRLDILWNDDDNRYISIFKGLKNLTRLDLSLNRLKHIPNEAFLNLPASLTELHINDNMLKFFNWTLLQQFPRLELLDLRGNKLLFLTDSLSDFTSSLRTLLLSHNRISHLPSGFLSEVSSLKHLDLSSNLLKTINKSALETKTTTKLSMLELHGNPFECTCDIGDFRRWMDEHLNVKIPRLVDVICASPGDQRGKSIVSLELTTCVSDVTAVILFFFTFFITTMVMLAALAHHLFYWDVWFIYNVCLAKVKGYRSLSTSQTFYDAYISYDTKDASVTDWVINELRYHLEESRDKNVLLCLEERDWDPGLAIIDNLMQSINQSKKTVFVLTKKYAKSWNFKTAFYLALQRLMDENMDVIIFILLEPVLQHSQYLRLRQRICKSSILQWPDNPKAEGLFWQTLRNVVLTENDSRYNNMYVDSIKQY
Outline: as §1

Cc1cc(-c2[nH]c3ccc(C4CCN(CC(=O)N(C)C)CC4)cc3c2C(C)C)c(C)n(C)c1=O [Example 138, 2-(4-(3-isopropyl-2-(1,2,5-trimethyl-6-oxo-1,6-dihydropyridin-3-yl)-1H-indol-5-yl)piperidin-1-yl)-N,N-dimethylacetamide]
IC50 (human TLR7): 17.5 nM | IC50 (human TLR9): 7610 nM | IC50 (human TLR8): 5.2 nM

Cc1cc(-c2[nH]c3ccc(C4CCN(Cc5ncn(C)n5)CC4)cc3c2C(C)C)cn(C)c1=O [Example 72, 5-(3-isopropyl-5-(1-((1-methyl-1H-1,2,4-triazol-3-yl)methyl)piperidin-4-yl)-1H-indol-2-yl)-1,3-dimethylpyridin-2(1H)-one]
IC50 (human TLR7): 21.8 nM | IC50 (human TLR9): ≥ 50000 nM | IC50 (human TLR8): 17.3 nM

Cc1cc(-c2[nH]c3ccc(C4CCNCC4)cc3c2C(C)C)cn(CCCO)c1=O [Example 38, 1-(3-hydroxypropyl)-5-(3-isopropyl-5-(piperidin-4-yl)-1H-indol-2-yl)-3-methylpyridin-2(1H)-one]
IC50 (human TLR7): 51.2 nM | IC50 (human TLR9): 3030 nM | IC50 (human TLR8): 30.3 nM

Cc1c(-c2[nH]c3ccc(C4CCN(C5COC5)CC4)cc3c2C(C)C)cn(C)c(=O)c1Cl [Example 248, 3-chloro-5-(3-isopropyl-5-(1-(oxetan-3-yl)piperidin-4-yl)-1H-indol-2-yl)-1,4-dimethylpyridin-2(1H)-one]
IC50 (human TLR7): 5.6 nM | IC50 (human TLR9): 30000 nM | IC50 (human TLR8): 16.9 nM

Cc1cc(-c2[nH]c3ccc(C4CCN(C5COC5)CC4)cc3c2C(C)C)nn(C)c1=O [Example 189, 6-(3-isopropyl-5-(1-(oxetan-3-yl)piperidin-4-yl)-1H-indol-2-yl)-2,4-dimethylpyridazin-3(2H)-one]
IC50 (human TLR7): 25.5 nM | IC50 (human TLR9): 47800 nM | IC50 (human TLR8): 25 nM

COc1cc(-c2[nH]c3ccc(C4CCNCC4)cc3c2C(C)C)c(C)n(C)c1=O [Example 28, 5-(3-isopropyl-5-(piperidin-4-yl)-1H-indol-2-yl)-3-methoxy-1,6-dimethylpyridin-2(1H)-one]
IC50 (human TLR7): 207 nM | IC50 (human TLR9): 1210 nM | IC50 (human TLR8): 174 nM

Cc1cc(-c2[nH]c3ccc(C4CCN(C(=O)C(C)(C)N)CC4)cc3c2C(C)C)cn(C)c1=O [Example 296, 5-(5-(1-(2-amino-2-methylpropanoyl)piperidin-4-yl)-3-isopropyl-1H-indol-2-yl)-1,3-dimethylpyridin-2(1H)-one]
IC50 (human TLR7): 1.1 nM | IC50 (human TLR9): 4310 nM | IC50 (human TLR8): 3 nM

Cc1cc(-c2[nH]c3ccc(C4CCN(C5CCOCC5)CC4)cc3c2C(C)C)c(C)n(C)c1=O [Example 210, 5-(3-isopropyl-5-(1-(tetrahydro-2H-pyran-4-yl)piperidin-4-yl)-1H-indol-2-yl)-1,3,6-trimethylpyridin-2(1H)-one]
IC50 (human TLR7): 24.7 nM | IC50 (human TLR9): 5030 nM | IC50 (human TLR8): 2.7 nM

CC(C)c1c(-c2cc(-c3cncnc3)c(=O)n(C)c2)[nH]c2ccc(C3CCN(CC4CCOC4)CC3)c(F)c12 (stereo not drawn) [Example 259, 5-(4-fluoro-3-isopropyl-5-(1-((tetrahydrofuran-3-yl)methyl)piperidin-4-yl)-1H-indol-2-yl)-1-methyl-3-(pyrimidin-5-yl)pyridin-2(1H)-one]
IC50 (human TLR7): 6.1 nM | IC50 (human TLR9): 983 nM | IC50 (human TLR8): 0.6 nM

CC(C)c1c(-c2cc(-c3cccnc3)c(=O)n(C)c2)[nH]c2ccc(C3CCN(CCO)CC3)cc12 [Example 236, 5-(5-(1-(2-hydroxyethyl)piperidin-4-yl)-3-isopropyl-1H-indol-2-yl)-1-methyl-[3,3′-bipyridin]-2(1H)-one]
IC50 (human TLR7): 4.6 nM | IC50 (human TLR9): 980 nM | IC50 (human TLR8): 9.8 nM

Cc1c(-c2[nH]c3ccc(C4CCN(CC5COC5)CC4)cc3c2C(C)C)cn(C)c(=O)c1Cl [Example 92, 3-chloro-5-(3-isopropyl-5-(1-(oxetan-3-ylmethyl)piperidin-4-yl)-1H-indol-2-yl)-1,4-dimethylpyridin-2(1H)-one]
IC50 (human TLR7): 3.2 nM | IC50 (human TLR9): 8510 nM | IC50 (human TLR8): 2.8 nM

Cc1c(-c2[nH]c3ccc(C4CCNCC4)cc3c2C(C)C)cn(C)c(=O)c1C#N [Example 24, 5-(3-isopropyl-5-(piperidin-4-yl)-1H-indol-2-yl)-1,4-dimethyl-2-oxo-1,2-dihydropyridine-3-carbonitrile]
IC50 (human TLR7): 75.9 nM | IC50 (human TLR9): 3760 nM | IC50 (human TLR8): 10.7 nM

COc1c(C)c(-c2[nH]c3ccc(C4CCN(CC(=O)N(C)C)CC4)cc3c2C(C)C)cn(C)c1=O [Example 141, 2-(4-(3-isopropyl-2-(5-methoxy-1,4-dimethyl-6-oxo-1,6-dihydropyridin-3-yl)-1H-indol-5-yl)piperidin-1-yl)-N,N-dimethylacetamide]
IC50 (human TLR7): 27.9 nM | IC50 (human TLR9): 4460 nM | IC50 (human TLR8): 37.3 nM

Cc1nc(-c2[nH]c3ccc(C4CCN(C(C)C)CC4)cc3c2C(C)C)cn(C)c1=O [Example 184, 5-(3-isopropyl-5-(1-isopropylpiperidin-4-yl)-1H-indol-2-yl)-1,3-dimethylpyrazin-2(1H)-one]
IC50 (human TLR7): 71.8 nM | IC50 (human TLR9): 2120 nM | IC50 (human TLR8): 34.2 nM
